Data on two compounds can be found in US11319306B2, “Compositions and methods for treating neurodegenerative diseases” (Azevan Pharmaceuticals, Inc., priority 2014, dated 2022).

Structures are written as SMILES. Where two headings read alike, the source gives them in different places.

One data set deals with T1, human V1a receptor (Homo sapiens, UniProt P37288).
T1 construct: host or cells: CHO cells (hV1a cell line)
Kind of data set: Human vasopressin V1a receptor binding assay (3H-AVP competition, hV1a CHO cells). The procedure, abridged:
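Whole CHO cells expressing hV1a were incubated with 1 nM 3H-AVP (as printed "InM") and 10-fold dilutions of compound in HEPES/BSA/DMEM buffer, pH 7.0, for 45 min at 37 °C. Non-specific binding was defined with 100 nM cold AVP. Bound radioactivity was SDS-solubilised and counted by scintillation; IC50 from curve fitting.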

The next data set addresses T2, V1b receptor (Homo sapiens, UniProt P47901).
T2 construct: expressed in transfected cells; host or cells: CHO-K1 (ATCC), vector pCI-neo, G418-selected clones
T2 sequence (P47901 1-424): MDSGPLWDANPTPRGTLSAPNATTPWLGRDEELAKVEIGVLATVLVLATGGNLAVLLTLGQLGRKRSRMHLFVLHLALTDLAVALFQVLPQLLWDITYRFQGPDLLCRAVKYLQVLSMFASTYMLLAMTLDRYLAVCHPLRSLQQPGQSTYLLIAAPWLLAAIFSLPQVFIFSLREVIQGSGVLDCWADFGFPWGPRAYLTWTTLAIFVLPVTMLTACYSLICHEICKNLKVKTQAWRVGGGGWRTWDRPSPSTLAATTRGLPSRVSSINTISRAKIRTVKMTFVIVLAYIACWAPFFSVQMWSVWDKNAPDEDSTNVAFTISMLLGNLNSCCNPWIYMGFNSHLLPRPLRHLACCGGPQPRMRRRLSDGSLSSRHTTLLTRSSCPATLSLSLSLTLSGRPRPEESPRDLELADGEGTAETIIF
The experiment in a line: Human or rat vasopressin V1b cell-based receptor binding assay. As to conditions: receptor selectivity table; read-out: inhibition data Ki, V1b. The source says:
Human vasopression V1b receptor-expressing cells. Human vasopressin receptor 1b (hV1b) cDNA (see, Lolait et al., “Extrapituitary expression of the rat V1b vasopressin receptor gene” Proc. Natl. Acad. Sci. USA. 92:6783-7 (1995); de Keyzer et al., “Cloning and characterization of the human V3(V1b) pituitary vasopressin receptor” FEBS Lett. 356:215-20 (1994); Sugimoto et al., “Molecular cloning and functional expression of a cDNA encoding the human V1b vasopressin receptor” J. Biol. Chem. 269:27088-92 (1994)) was inserted into a mammalian cell expression vector PCI-neo (Promega) at EcoR1 site. The recombinant plasmid carrying hV1b cDNA was identified from transformed E. Coli clones and used for the transfection of Chinese hamster ovary cell (CHO-Kl, ATCC). Two micrograms of hV1b receptor DNA was introduced into 10^5 CHO cells cultured in 6-well plate, using Fugene-6 mediated transfection technique (Boehringer Mannheim). Twenty-four hrs post transfection, Cells were then cultured under selection of G-418 (0.25 mg/ml) supplemented to the culture medium. Three days later, limited dilution was carried out to obtain single cell clones in 96-well plates. […]
Human or rat vasopression V1b cell-based receptor binding assay. […] Samples were counted in a liquid scintillation counter (Beckman LS3801). IC50 and Ki values were calculated using Prism Curve fitting software. […]

For a further data set, the target named is V2 (Homo sapiens, UniProt P30518). The experiment in a line: V2 receptor inhibition data (Ki). The format is binding. As to conditions: receptor selectivity table.
The test system of another data set is human brain. The experiment in a line: fMRI BOLD imaging of test subjects given intranasal AVP (neurodegenerative disease model), emotional faces task. It is filed as in vivo. As to conditions: following IN-AVP, compared to placebo. Here is the method:
Neurodegenerative disease (ND) model. Test subjects are randomized to an ND model group (for example, n=15), and a baseline control group (for example, n=14). The ND model group is administered intranasal arginine vasopressin (IN-AVP), 40 IU Pitressin (JHP Pharmaceuticals) in a sterile aqueous solution. IN-AVP doses are administered in 3 mL intranasal atomizers (MAD300; Wolfe Tory Medical, Salt Lake City) 45 minutes prior to fMRI imaging. The baseline control group is administered intranasal vehicle only. All test subjects are evaluated by fMRI imaging.
fMRI imaging. Data are acquired with a Philips Achieva Quasar dual 16 Channel 3T MRI scanner at the University of Chicago Brain Research Imaging Center using a reverse spiral imaging sequence to minimize ventral brain signal dropout. […] Categories include: angry faces, neutral faces, happy faces, and a fixation point. Test subjects are given the “implicit” task of identifying the gender of each image by button press. Statistical parametric maps are generated based on pre-processed 3 mm^3 images that are spatially smoothed with an 8 mm kernel, bandpass filtered to remove drift, checked for excessive movement, and movement-corrected. Images from each individual are warped to an echoplanar image template in Montreal Neurological Institute space. Voxelwise whole brain analysis is conducted on data thresholded at >10 contiguous voxels, with small volume correction p<0.05, to examine effects of test compound versus placebo on BOLD activity in a priori regions of interest (ROI). ROIs of the identified clusters of BOLD differences are extracted as parameter estimates of average BOLD signal intensity in anatomically defined substructures and exported into SPSS (IBM; Armont, N.Y.) for ANCOVA, covarying for baseline parameter estimates in matching ROIs. Extracted parameter estimates of a priori ROIs are also examined with RM-ANOVA in SPSS with the within subjects factor and between subjects factors of all combinations of test compound versus placebo, and IN-AVP versus intranasal placebo. Comparisons are made between emotion conditions (angry faces) and various neutral conditions (neutral faces, happy faces, fixation points). Comparisons are also made between emotion conditions (neutral faces) and various neutral conditions (happy faces, fixation points).
Neuropsychiatric symptom treatment with vasopressin antagonists. A first group of test subjects in a baseline control group receiving intranasal placebo is randomized to test compound or placebo. A second group of test subjects in a ND model group receiving IN-AVP is randomized to test compound or placebo. Test compound, such as SRX228, SRX246, SRX251, SRX296, or SRX576, or placebo is administered in blinded form for 5-10 days (mean 7.3+/−1.3 days; minimum 5 days; […]) prior to fMRI. Alternatively, test compound, such as SRX228, SRX246, SRX251, SRX296, and SRX576, or placebo is administered in blinded form after IN-AVP or intranasal placebo administration, and prior to fMRI. […] For example, test compound is SRX246 (n=15; 80, 120, or 160 mg po bid) versus placebo (n=14) in oral capsules; or test compound is SRX251 (n=15; 80, 120, or 160 mg po bid) versus placebo (n=14) in oral capsules.

Another data set relates to awake rats. The experiment in a line: Resident-intruder model of stress and aggression in rats, awake fMRI neuroimaging. It is filed as in vivo, rat. The settings on record: pretreatment 5 mg/kg 90 minutes before test session, mate + intruder; listed as AVN246. The source says: Resident-intruder model of stress and aggression in rats. Neuroimaging is used to assess the blockade of stress/arousal with test compound compared to control. The effect of AVN251-HCl on functional circuitry was examined using the imaging method for awake rats. Additional details of the assay are described in Ferris et al. Imaging the neural circuitry and chemical control of aggressive motivation.
Male rats in the company of a female cage mate piloerect in the presence of a male intruder. Piloerection is a sign of stress and aggressive intent and is associated with activation of stress/arousal circuits in the brain. Stress circuit activation in response to an intruder male is assessed by obtaining brain scans viewed from a caudal/dorsal perspective as translucent shells. The localization of activated voxels is mapped as 3D volumes of activation, which are composed of 10 subjects each. Once fully registered and segmented, the statistical responses for each subject are averaged on a voxel-by-voxel basis. Those averaged voxels exceeding a 2.0% threshold are shown in their appropriate spatial location. Functional images are acquired on awake rats at 4.7 T.
Resident male rats from six male/female pairs are imaged while fully awake, and presented with their mate, or their mate+an intruder, a highly stressful stimulus. […] The total volume of brain activation for resident males confronted with their mate alone, mate plus intruder, and mate plus intruder in the presence of AVN251-HCl are viewed as 3D models.
Awake rats are imaged when presented with their mate, or their mate+an intruder. […] In each scan, the dark shaded areas represent activation of vasopressin receptor signaling.

The nature of a further data set: Pharmacokinetics. The format is in vivo. The settings on record: b.i.d. dosing. The source says: Pharmacokinetics. Compounds described herein are rapidly absorbed after oral administration. Compounds described herein cross the blood-brain-barrier and achieve therapeutically effective concentrations in the CNS. Compounds described herein may be dosed according to a wide variety of protocols, including but not limited to q.d., b.i.d., and the like.

T1 sequence (P37288 whole entry): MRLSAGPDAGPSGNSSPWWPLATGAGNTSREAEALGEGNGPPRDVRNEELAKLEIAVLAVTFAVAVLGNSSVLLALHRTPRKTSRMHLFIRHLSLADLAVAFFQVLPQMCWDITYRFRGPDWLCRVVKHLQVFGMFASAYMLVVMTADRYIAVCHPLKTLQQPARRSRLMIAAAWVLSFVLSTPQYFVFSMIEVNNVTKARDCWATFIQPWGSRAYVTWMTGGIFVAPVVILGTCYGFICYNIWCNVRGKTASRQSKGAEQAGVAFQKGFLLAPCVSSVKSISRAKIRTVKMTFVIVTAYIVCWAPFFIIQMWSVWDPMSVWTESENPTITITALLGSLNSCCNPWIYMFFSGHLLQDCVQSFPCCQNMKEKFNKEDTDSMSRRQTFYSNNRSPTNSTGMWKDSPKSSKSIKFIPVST
Sequence of V2 (P30518 whole entry): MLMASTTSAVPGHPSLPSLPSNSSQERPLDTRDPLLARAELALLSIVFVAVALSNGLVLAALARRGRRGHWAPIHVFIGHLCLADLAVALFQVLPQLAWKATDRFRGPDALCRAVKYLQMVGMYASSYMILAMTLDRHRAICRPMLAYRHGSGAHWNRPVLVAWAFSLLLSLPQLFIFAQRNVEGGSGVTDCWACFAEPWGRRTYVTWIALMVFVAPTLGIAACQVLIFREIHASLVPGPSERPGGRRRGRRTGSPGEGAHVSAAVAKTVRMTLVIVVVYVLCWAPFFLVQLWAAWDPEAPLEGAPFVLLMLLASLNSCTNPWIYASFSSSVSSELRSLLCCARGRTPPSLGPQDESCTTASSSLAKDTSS

`C[C@@H](NC(=O)[C@@H](CC(=O)N1CCC(N2CCCCC2)CC1)N1C(=O)[C@@H](N2C(=O)OC[C@@H]2c2ccccc2)[C@H]1/C=C/c1cccc(I)c1)c1ccccc1` [Example 266]: at human V1a receptor (3H-AVP competition, CHO cells expressing human V1a, read-out: V1a Binding Affinity IC50), the half-maximal inhibitory concentration (IC50) (usually the point on the concentration scale where inhibition reaches its midpoint) amounted to 1.8 nM. Moreover, the inhibition constant (Ki) (usually a measure of affinity in units of concentration, obtained from inhibition or displacement) is 1.1 nM on human V1a receptor (3H-AVP competition, CHO cells expressing human V1a, read-out: V1a Ki); 1.1 nM at human V1a receptor (receptor selectivity table, read-out: inhibition data Ki, V1a); more than 100 nM on V1b receptor; more than 1000 nM at V2.
In the case of `C[C@@H](NC(=O)[C@@H](CC(=O)N1CCC(N2CCCCC2)CC1)N1C(=O)[C@@H](N2C(=O)OC[C@@H]2c2ccccc2)[C@H]1/C=C/c1ccccc1)c1ccccc1` [Example 224, 2(R)-[[4-(Piperidinyl)piperidinyl]carbonylmethyl]-2-[3(S)-(4(S)-phenyloxazolidin-2-on-3-yl)-4(R)-(2-styryl)azetidin-2-on-1-yl]acetic acid N—[(R)-α-methylbenzyl]amide], in the data set with human brain (posttreatment, angry faces versus happy faces), the “BOLD activation signal in anterior cingulate cortex and medial prefrontal cortex” value was “significantly decreases”. For the same compound, the “BOLD activation signal in temporoparietal cortex (Brodmann Area 39) and amygdala” value was “significantly decreases” in the data set on human brain (posttreatment, angry faces versus happy faces, p<0.05) and “significantly decreases” in the data set with human brain (pretreatment, angry faces versus fixation point, p<0.001). In addition, the “BOLD activation signal in medial prefrontal cortex” value with human brain (pretreatment, angry faces versus fixation point, p<0.005) is given as “significantly decreases”. In addition, in the data set with human brain (pretreatment), the “cortical reactivity to angry faces in anterior cingulate cortex and medial superior prefrontal cortex” value is “significantly attenuated”. In the data set with awake rats, the “stress/arousal response in amygdala, cortex, hippocampus and thalamus” value was “blocked the stress/arousal response”. The T1/2 entry in the data set “Pharmacokinetics” was “improved”. Besides, the accumulation in the data set “Pharmacokinetics” turned out to be 1.7 fold.
